Source: patent US20090162351A1, “Transdiscal administration of inhibitors of p38 MAP kinase” (DePuy Spine, Inc., priority 2007, published 2009)
Several values for one entry are separate records, joined by “and”; a condition that tells them apart may be missing. Identical values can stand only once. Like-named read-outs stand apart in the source and are kept apart here.

Legend:
[1] = tested on: IL-1β-stimulated PGE2 synthesis in bovine chondrocyte pellets / ARC tissues; test: Chondrocyte pellet / ARC culture model: Prostaglandin E2 assay; type: cell-based; conditions: for PGE2 synthesis (in words): diacerein at 5.4 μM, rhein at 0.35 μM, 10 ng/ml IL-1β; for maximum inhibition of PGE2: bovine ARC tissues, IL-1β; for effect on IL-1β-stimulated PGE2 synthesis (in words): chondrocyte pellet / ARC model
Text: (§1) Calf articular cartilage was obtained from the knee joints of eight to twelve month old animals and was processed within twenty-four hours after sacrifice. After removal of muscle and ligament, the cartilage was kept moist using phosphate buffer solution (PBS) to prevent tissue dehydration, and was aseptically peeled off from subchondral bone with a scalpel, and the cartilage pieces were further minced into smaller pieces (˜0.3-0.5×˜0.2-0.5 cm cubes). […] Chondrocytes were then enzymatically isolated from the tissue by incubation for overnight at 37° C. with gentle agitation in 0.2% collagenase in Dulbecco's modified eagle media (DMEM). After removal of tissue debris by filtration through cell strainer and the residual collagenase by 3× wash in PBS, cells were finally resuspended at a density of 2.5×10^6 cells/ml in chondrocyte medium. A 1 ml aliquot of the cell suspension was dispensed into either a 15 ml Falcon centrifuge tube or a 96 deep-well plate and centrifuged at 2000×g for five minutes. The chondrocyte pellets were incubated at 37° C. in a humidified atmosphere of 5% CO2 for two to three weeks with a medium change every other day.
(§2) As an alternative to using calf articular cartilage, a commercial Aliginate Recovered Chondrocytes (ARC) system was also used (Articular Engineering, LLC (Northbrook, Ill.)). Use of the commercial system cut down on labor and time in producing chondrocyte pellet. This system produced cartilaginous tissue in vitro using bovine chondrocytes. The first step consisted of culturing chondrocytes in alginate under conditions optimal for the formation of a cell-associated matrix (CM). The second step allowed these cells with their CM, after recovery, to rapidly form and become integrated into a solid mass of cartilage on a porous insert within two weeks.
(§3) Chondrocyte pellets were washed once with 1 ml of Chondrocyte Stimulation Medium and equilibrated in the same medium at room temperature for fifteen to thirty minutes. Compounds were dissolved in H2O, Ethanol or dimethyl sulfoxide (DMSO) (10^−2 M) according to suppliers' instructions and further diluted with Chondrocyte Stimulation Medium to the required concentrations. DMSO concentrations in the culture media should not exceed 1%; this concentration of DMSO has no effect on cartilage proteoglycan metabolism in response to cytokines.
(§4) The pellets were first treated with compounds at desired concentrations at 37° C. for one hour and then incubated for three to five days in the absence or presence of 10 ng/ml of IL-1β. At the end of the incubation, media and pellets were harvested and frozen for further analysis. Pellets were also fixed as needed in 4% (w/v) paraformaldehyde in PBS for histology analysis.
Prostaglandin E2 (PGE2) was measured with a STAT-Prostaglandin E2 EIA ELISA kit (Cayman Biochemicals). This assay is based on the competition between PGE2 from 50 μl samples and a PGE2-alkaline phosphatase conjugate for a limited amount of PGE2 monoclonal antibody in a reaction volume of 150 μl at room temperature for one hour. The antibody-PGE2 complex bound to a goat polyclonal anti-mouse IgG that had been previously attached to the well. After washing to remove any unbound reagents, para-nitrophenyl phosphate (pNPP) was added to the well. The product of this enzymatic reaction absorbs strongly at 412 nm. Because of the large range in response to IL-1β and other cytokines, PGE2 values were converted to log scale prior to doing t-tests.
To characterize the relative efficacies among different p38 MAP kinase inhibitors, dose-response curves were generated for both PGE2 and NO assays. […] After one hour of treatment, ARCs were stimulated with or without 7.5 ng/ml IL-1β and continued to incubate for five days before assay. The IL-1β-stimulated PGE2 synthesis or NO production was first calculated by subtraction of PGE2/NO levels in the absence of IL-1β from that in the presence of IL-1β. […]

[2] = tested on: IL-1β-stimulated NO production in bovine chondrocyte pellets / ARC tissues; test: Chondrocyte pellet / ARC culture model: total nitrite and nitrate assay; type: cell-based; conditions: for effect on IL-1β-stimulated NO production (in words): chondrocyte pellet / ARC model
Text: as §1, §2, §3, §4
Nitrate/Nitrite levels were measured using the Griess reaction (Green L. C. et al., “Analysis of Nitrate, Nitrite, and [15N]nitrate in Biological Fluids,” Anal. Biochem. 126: 131-138 (1982)) with a Nitrate/Nitrite Colorimetric Assay Kit (Cayman Chemicals), the contents of which are incorporated herein by reference. The assay involved a simple two-step process. The first step involved conversion of nitrate in 50 μl of culture medium to nitrite utilizing nitrate reductase in a reaction volume of 100 μl at room temperature for two hours. The second step involved the addition of 50 μl of both Griess Reagent 1 and 2, which converted nitrite into a deep purple azo compound in ten minutes. Photometric measurement of the absorbance at 540 or 550 nm due to this azo chromophore accurately determined nitrite concentration. This assay kit cannot be used for RPMI (Roswell Park Memorial Institute) derived tissue culture medium due to interference with the colorimetric reaction.
To characterize the relative efficacies among different p38 MAP kinase inhibitors, dose-response curves were generated for both PGE2 and NO assays. […] After one hour of treatment, ARCs were stimulated with or without 7.5 ng/ml IL-1β and continued to incubate for five days before assay. […]

chondrocytes = type: cell-based
Procedure: The LDH activity was determined calorimetrically in an enzymatic test based on the conversion of lactic acid to pyruvate in the presence of chromagenic substrate tetrazolium salt INT that was reduced to formazan.

COX2 = target: T1, COX2 (Homo sapiens, UniProt P35354); test: COX2 inhibition; type: biochemical; conditions: read-out: inhibitor of COX2, IC50
T1 sequence (P35354 18-604): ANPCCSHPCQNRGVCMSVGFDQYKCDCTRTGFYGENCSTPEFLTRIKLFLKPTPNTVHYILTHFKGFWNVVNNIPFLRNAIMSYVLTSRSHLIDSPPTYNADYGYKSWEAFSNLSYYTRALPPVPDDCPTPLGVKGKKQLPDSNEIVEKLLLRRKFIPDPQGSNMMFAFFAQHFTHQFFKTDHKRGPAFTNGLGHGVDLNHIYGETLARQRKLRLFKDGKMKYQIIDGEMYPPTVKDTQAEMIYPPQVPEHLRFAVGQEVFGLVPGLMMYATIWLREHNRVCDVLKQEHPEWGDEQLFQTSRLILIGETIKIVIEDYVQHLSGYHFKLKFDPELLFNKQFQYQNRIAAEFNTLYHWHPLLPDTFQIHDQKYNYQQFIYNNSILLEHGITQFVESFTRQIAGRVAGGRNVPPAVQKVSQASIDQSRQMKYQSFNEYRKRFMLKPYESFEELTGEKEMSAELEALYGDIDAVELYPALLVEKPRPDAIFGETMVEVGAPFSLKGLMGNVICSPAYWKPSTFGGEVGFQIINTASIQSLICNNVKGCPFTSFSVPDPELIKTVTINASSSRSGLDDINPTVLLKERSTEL

[3] = Bos taurus, Chondrocyte, Table 3B, read-out: PGE2 Inhibition, Pellet Assay, IC50
[4] = Bos taurus, Chondrocyte, 120 h, bovine ARCs, 7.5 ng/ml IL-1β, five days, sigmoidal dose-response fit, read-out: PGE2, IC50
[5] = bovine ARCs, 7.5 ng/ml IL-1β, five days, sigmoidal dose-response fit, read-out: PGE2, IC50
[6] = Bos taurus, Chondrocyte, 120 h, bovine ARCs, 7.5 ng/ml IL-1β, five days, sigmoidal dose-response fit, read-out: NO, IC50
[7] = bovine ARCs, 7.5 ng/ml IL-1β, five days, sigmoidal dose-response fit, read-out: NO, IC50
[8] = Bos taurus, Chondrocyte, at 0.5 μM
[9] = chondrocyte pellet / ARC model, within the tested concentrations

For CC(C(=O)O)c1ccc(C(=O)c2cccs2)cc1 (stereo not shown) [Suprofen, reference compound], the IC50 [1, 3] was 0.812 nM and the inhibition at 10 µM ([2]; Bos taurus, Chondrocyte) was 20%.
COc1ccc(-n2nc(CCC(=O)N(C)O)cc2-c2ccc(Cl)cc2)cc1 [Tepoxalin, reference compound] gave an IC50 [1, 3] of 3280 nM and an inhibition at 10 µM ([2]; Bos taurus, Chondrocyte) of 50%.
With CO[C@H]1C[C@@H]2CC[C@@H](C)[C@@](O)(O2)C(=O)C(=O)N2CCCC[C@H]2C(=O)O[C@H]([C@H](C)C[C@@H]2CC[C@@H](O)[C@H](OC)C2)CC(=O)[C@H](C)/C=C(\C)[C@@H](O)[C@@H](OC)C(=O)[C@H](C)C[C@H](C)/C=C/C=C/C=C/1C [Rapamycin, reference compound] the inhibition at 10 µM ([1]; Bos taurus, Chondrocyte, at 10 μM) was 47%, the “cytotoxicity to chondrocytes, LDH (in words)” value (“cytotoxicity to chondrocytes” below) (chondrocytes) was “little toxicity” and the inhibition at 10 µM ([2]; Bos taurus, Chondrocyte) was 30%.
With O=C(O)c1cc(O)c2c(c1)C(=O)c1cccc(O)c1C2=O [Rhein, reference compound] the “PGE2 synthesis (in words)” value ([1]; five days) was “no effect” and the “cytotoxicity to chondrocytes” value (chondrocytes) was “higher toxicity”.
CC(=O)Oc1cccc2c1C(=O)c1c(OC(C)=O)cc(C(=O)O)cc1C2=O [Diacerein, reference compound] was tested, and the “PGE2 synthesis (in words)” value ([1]; five days) was “no effect”, the “cytotoxicity to chondrocytes” value (chondrocytes) was “cytotoxicity at higher concentrations” and the “NO production (in words)” value ([2]; diacerein at 5.4 μM, rhein at 0.35 μM, 10 ng/ml IL-1β, five days) was “significantly inhibited”.
For C[C@@H]1CN(Cc2ccc(F)cc2)[C@@H](C)CN1C(=O)c1cc2c(C(=O)C(=O)N(C)C)cn(C)c2cc1Cl [SCIO-469 (SD 469)], the IC50 [1, 4] was 107 nM, the IC50 [1, 3] was 18 nM and the “maximum inhibition of PGE2” value [1] was 62%. The IC50 [1, 5] was 107 nM, the “increase of LDH level” value (chondrocytes; bovine, 100000 nM) was 121% and the IC50 [2, 6] was 18 nM. For the same compound, the IC50 ([2]; Bos taurus, Chondrocyte, Table 3B, unit inferred, read-out: NO Inhibition, Pellet Assay, IC50) was 107 nM and the IC50 [2, 7] was 18 nM.
Work on CC(=O)N1CCN(c2c(-c3ccncc3)c(-c3ccc(F)cc3)c(C#N)n2C)CC1 [JNJ 17089540 (RWJ 669307)] yielded an IC50 (COX2) greater than 10000 nM, an IC50 ([1]; Table 3B, read-out: PGE2 Inhibition, Pellet Assay, IC50) of 29600 nM and an IC50 [1, 5] of 29600 nM. The “cytotoxicity to chondrocytes” value (chondrocytes) was “little cytoxicity”, the IC50 ([2]; Table 3B, read-out: NO Inhibition, Pellet Assay, IC50) was 4900 nM and the IC50 [2, 7] was 4920 nM. For the same compound, the “effect on IL-1β-stimulated NO production (in words)” value [2] was “weaker inhibitor”.
With C[C@H](Nc1nccc(-c2c(-c3ccc(F)cc3)nc3nc(N)ccn23)n1)c1ccccc1 [JNJ 7583979 (RWJ 351958)] the IC50 (COX2) was greater than 10000 nM, the inhibition at 0.5 µM [1, 8] was 100% and the “effect on IL-1β-stimulated PGE2 synthesis (in words)” value [1] was “significantly inhibited”. The “cytotoxicity to chondrocytes” value (chondrocytes; [9]) was “little cytoxicity”, the inhibition at 0.5 µM [2, 8] was 50% and the “effect on IL-1β-stimulated NO production (in words)” value [2] was “significantly inhibited”.
In the case of OCCC#Cc1nc(-c2ccc(F)cc2)c(-c2ccncc2)n1CCCc1ccccc1 [JNJ 3026582 (RWJ 67657), 4-[4-(4-fluorophenyl)-1-(3-phenylpropyl)-5-(4-pyridinyl)-1H-imidazol-2-yl]-3-butyn-1-ol], the IC50 (COX2) is reported as greater than 10000 nM, the IC50 [1, 4] is reported as 421 nM and the IC50 [1, 3] is reported as 421 nM. The “effect on IL-1β-stimulated PGE2 synthesis (in words)” value [1] was “inhibited”, the “cytotoxicity to chondrocytes” value (chondrocytes; [9]) was “little cytoxicity” and the IC50 [2, 6] was 119 nM. The IC50 ([2]; Bos taurus, Chondrocyte, Table 3B, read-out: NO Inhibition, Pellet Assay, IC50) was 119 nM and the “effect on IL-1β-stimulated NO production (in words)” value [2] was “inhibited”.
For C[C@@H]1CN(Cc2ccc(F)cc2)[C@@H](C)CN1C(=O)c1cc2cc(C(=O)C(=O)N(C)C)[nH]c2cc1Cl [SCIO-282 (SD 282)], the “maximum inhibition of PGE2” value [1] was 96%, the IC50 [1, 5] was 583 nM and 582 nM and the “effect on IL-1β-stimulated PGE2 synthesis (in words)” value [1] was “inhibited”. For the same compound, the “cytotoxicity to chondrocytes” value (chondrocytes; [9]) was “little cytoxicity”, the IC50 [2, 7] was 74 nM and 74.4 nM and the “effect on IL-1β-stimulated NO production (in words)” value [2] was “inhibited”.
With Cc1ccc(C(=O)c2ccc(CC(=O)O)n2C)cc1 [Tolmetin, reference compound] the IC50 [1, 3] was 673 nM and the “NO Inhibition, Pellet Assay (in words)” value ([2]; Table 3B) was “No effect”.
